Test results taken from patent publication US20130165368A1, “ANTIMICROBIAL COMPOUNDS” (priority 2010, published 2013).

Tested on: MRSA NCTC 11939
Assay: Synergy testing: disc susceptibility, zone of inhibition on agar containing Laureth derivative
Assay type: cell-based, Staphylococcus aureus
Method: There now follows data relating to a screen for synergistic interaction between Laureth derivatives [C12E1 to C12E8] and 12 conventional anti-staphylococcal agents.
Ethoxylated Lauryl Alcohol Derivative Preparation As plates containing quarter strength of the MIC of NCTC 11939 are needed, and therefore very small weights of each compound, they were prepared at twenty time strength in 20 mL volumes in plastic universals. Once prepared these solutions were diluted […] by adding 1 mL to 1 mL SDW, resulting a 2 mL volume at ten times strength. This was undertaken in duplicate to create two identical plates.
IST was prepared as previously stated in above. 18 mL agar was added to each universal and then poured into sterile Petri dishes. Control plates were prepared as stated above
A 0.5 McFarland suspension of MRSA NCTC 11939 was prepared using SDW. This was then adjusted to a concentration of 1.5×107 by adding 200 μL to 1.8 mL of SDW. Once diluted, a sterile cotton swab was used to spread the suspension evenly across the entire surface of each agar plate.
Twelve antibiotics discs were added to the plates, 6 per plate in a circle. The plates were then incubated aerobically at 37° C.
The diameter of the zones of clearance were measured and recorded in millimetres. The zones for each compound were compared to the control and to BSAC breakpoints.
A variation of zone size within 2 mm is within acceptable limits of assay reproducibility.

[1] = antibiotic disc in the presence of L1 [C12E1] 0.005 mmol/L
[2] = antibiotic disc in the presence of L2 [C12E2] 0.0275 mmol/L
[3] = antibiotic disc in the presence of L3 [C12E3] 0.01375 mmol/L
[4] = antibiotic disc in the presence of L4 [C12E4] 0.0275 mmol/L
[5] = antibiotic disc in the presence of L5 [C12E5] 0.0275 mmol/L
[6] = antibiotic disc in the presence of L6 [C12E6] 0.0275 mmol/L
[7] = antibiotic disc in the presence of L7 [C12E7] 0.0275 mmol/L
[8] = antibiotic disc in the presence of L8 [C12E8] 0.055 mmol/L
[9] = antibiotic disc, Control, 0 mmol/L Laureth derivative

Row | Compound | Zone of Inhibition [1] [mm] | Zone of Inhibition [2] [mm] | Zone of Inhibition [3] [mm] | Zone of Inhibition [4] [mm] | Zone of Inhibition [5] [mm] | Zone of Inhibition [6] [mm] | Zone of Inhibition [7] [mm] | Zone of Inhibition [8] [mm] | Zone of Inhibition [9] [mm]
1 | O=C(N[C@H](CO)[C@H](O)c1ccc([N+](=O)[O-])cc1)C(Cl)Cl [Chloramphenicol] | 22 | 22 | 24 | 23 | 25 | 23 | 22 | 23 | –
2 | CCC[C@@H]1C[C@@H](C(=O)N[C@@H]([C@H]2O[C@H](SC)[C@H](O)[C@@H](O)[C@H]2O)[C@H](C)Cl)N(C)C1 [Clindamycin] | 33 | 32 | 32 | 34 | 33 | 33 | 34 | 35 | –
3 | CC[C@H]1OC(=O)[C@H](C)[C@@H](O[C@H]2C[C@@](C)(OC)[C@@H](O)[C@H](C)O2)[C@H](C)[C@@H](O[C@@H]2O[C@H](C)C[C@H](N(C)C)[C@H]2O)[C@](C)(O)C[C@@H](C)C(=O)[C@H](C)[C@@H](O)[C@]1(C)O [Erythromycin] | 7 | 7 | 7 | 8 | 7 | 7 | 7 | 8 | –
4 | CC(=O)O[C@H]1C[C@@]2(C)[C@@H](C[C@@H](O)[C@H]3[C@@]4(C)CC[C@@H](O)[C@@H](C)[C@@H]4CC[C@@]32C)/C1=C(\CCC=C(C)C)C(=O)O [Fusidic Acid] | 36 | 37 | 35 | 38 | 37 | 39 | 37 | – | –
5 | COc1c(N2C[C@@H]3CCCN[C@@H]3C2)c(F)cc2c(=O)c(C(=O)O)cn(C3CC3)c12 [Moxyfloxacin] | 14 | 14 | 16 | 14 | 13 | 14 | 18 | – | 15
6 | C/C(=C\C(=O)OCCCCCCCCC(=O)O)C[C@@H]1OC[C@H](C[C@@H]2O[C@H]2[C@@H](C)[C@H](C)O)[C@@H](O)[C@H]1O [Muprocin] | 32 | 33 | 32 | 34 | 32 | 33 | 34 | 35 | 33
7 | CO[C@H]1/C=C/O[C@@]2(C)Oc3c(C)c(O)c4c(O)c(c(/C=N/N5CCN(C)CC5)c(O)c4c3C2=O)NC(=O)/C(C)=C\C=C\[C@H](C)[C@H](O)[C@@H](C)[C@@H](O)[C@@H](C)[C@H](OC(C)=O)[C@@H]1C [Rifampicin] | 37 | 37 | 37 | 40 | 39 | 40 | 39 | – | –
8 | CN(C)[C@@H]1C(O)=C(C(N)=O)C(=O)[C@@]2(O)C(O)=C3C(=O)c4c(O)cccc4[C@@](C)(O)[C@H]3C[C@@H]12 [Tetracycline] | 34 | 35 | 35 | 36 | 32 | 35 | 36 | – | –
9 | COc1cc(Cc2cnc(N)nc2N)cc(OC)c1OC [Trimethoprim] | 29 | 30 | 28 | 31 | 30 | 31 | 30 | – | –
10 | CN[C@H](CC(C)C)C(=O)N[C@H]1C(=O)N[C@@H](CC(N)=O)C(=O)N[C@H]2C(=O)N[C@H]3C(=O)N[C@H](C(=O)N[C@H](C(=O)O)c4cc(O)cc(O)c4-c4cc3ccc4O)[C@H](O)c3ccc(c(Cl)c3)Oc3cc2cc(c3O[C@@H]2O[C@H](CO)[C@@H](O)[C@H](O)[C@H]2O[C@H]2C[C@](C)(N)[C@H](O)[C@H](C)O2)Oc2ccc(cc2Cl)[C@H]1O [Vancomycin] | 21 | 21 | 19 | 21 | 20 | 20 | 20 | 23 | –
11 | Gentamicin | 27 | 27 | 27 | 29 | 28 | 30 | 30 | 33 | 28
